The values below come from US10377778B2, “Lead and thorium compounds” (Sciencons AS, priority 2017, dated 2019).

The subject of data set [1] is C4-2 PSMA-positive xenografts. As to the kind of experiment: Biodistribution of radiolabelled ligands (^224Ra/^212Pb solutions, ^177Lu) in nude mice with C4-2 xenografts. The method, then:
Each group usually consisted of three mice. […] Approximately 16 kBq of ^224Ra/^212Pb was injected in each animal, i.e., approximately 0.2 nmol of ligand per mouse. Animals were given anaesthesia and sacrificed by cervical dislocation followed by dissection and harvesting of tissue-, blood- and urine samples. The samples were weighed and counted on a gamma counter.
Three mice in each group. […] The molar concentration was the same for both products, i.e., 12.5 nmol per MBq. Approximately 16 kBq of ^224Ra/^212Pb was injected in each animal, i.e., approximately 0.2 nmol of ligand per mouse. Animals were given anaesthesia and sacrificed by cervical dislocation followed by dissection and harvesting of tissue-, blood- and urine samples. The samples were weighed and counted on a gamma counter.
Methods: Tumor and kidney uptake of ^212Pb-labeled p-SCN-Bn-TCMC-PSMA ligand 1 and ^177Lu-labeled PSMA-617 was compared at 1 hours and 4 hours after administration of the products by intravenous injection into nude mice with C4-2 xenografts as described in Example 9.

In data set [2] the test system is C4-2 PSMA positive human prostate cells xenografts. As to the kind of experiment: Comparative therapy experiment in nude mice with C4-2 xenografts. The class given is in vivo. The settings on record: 52 MBq ^177Lu-PSMA-617 or 320 kBq ^212Pb-ligand 1. The protocol:
Male nude mice were inoculated in the flanks with C4-2 PSMA positive human prostate cells and 2 weeks later when tumors were 5-7 mm in diameters. Groups of 8 animals each received saline, 52 MBq of ^177Lu-PSMA-617 or 320 kBq of ^212Pb-p-SCN-Bn-TCMC-PSMA ligand 1. Animals were sacrificed when tumor size reached 20 mm due to animal welfare requirements. […] For ^212Pb the effective half-life was assumed to be 10.6 h, 10% of injected dose per gram decays in tumor and 100% of radiation in a tumor is absorbed in the tumor, 100% retention of ^212Pb and daughters in the tumors and 8 MeV radiation energy per decay. The tumor dosimetry for the injected activities gave on average 35.9 Gy to tumors for ^177Lu-PSMA-617 and 2.06 Gy to tumors for ^212Pb-p-SCN-Bn-TCMC-PSMA ligand 1 groups respectively.

The next data set concerns PC3 PIP model. Particulars: mouse xenografts, model used by other researchers; cited from earlier work.
Data set [3] is described as follows: Stability testing of ^212Pb-labeled ligands in vitro (TLC radiochemical purity in PBS and FBS). The class given is physicochemical. Particulars: 37° C. The protocol: Thin layer chromatography (TLC) was performed using chromatography strips (model #150-772, Biodex Medical Systems Inc, Shirley, N.Y., USA). A formulation buffer (FB) consisting of 7.5% human serum albumin and 5 mM EDTA in DPBS and adjusted to approximately pH 7 with NaOH was mixed with the antibody conjugates in ratio 2:1 for at least 5 minutes before application to the strips to determine free radionuclide. A small beaker with about 0.5 ml of 0.9% NaCl was used to place strips with a sample spot in. To the strip was typically added 1-4 μl of sample at approximately 10% above the bottom of the strip. After the solvent front had moved to about 20% from the top of the strip, the strip was cut in half and each half was placed in a 5 ml test tube for counting. In this system radiolabeled ligand stays at the bottom half while radionuclide complexed with EDTA migrates to the upper half. It was verified that free cations of both ^212Pb and ^177Lu would complex with EDTA and moved to the top.
TLC analyses were performed at 1 h, 4 h, 24 h and 48 h of incubation. […]

A further data set concerns C4-2 cells. The data set can be described thus: Prostate cancer cell binding of ^212Pb-labeled ligands. More on the design: species or system human. The settings on record: labeled with ^212Pb. The method, then: The cell binding fractions measured by adding about 1 ng of radioligand to 0.2 ml of C4-2 cells (5×10^7 cells per ml) in a 5 ml test tube and incubate for 1 h before measuring applied activity, wash cells 3 times with 0.5 ml 0.5% bovine serum albumin in DPBS and thereafter recount the washed cell pellet. […] Nonspecific binding was measured by blocking the cells with excess 10 μg/ml of unlabelled ligand before adding radioligand.

As to `O=C([O-])CN1CCN(CC(=O)[O-])CCN(CC(=O)NCC2CCC(C(=O)N[C@@H](Cc3ccc4ccccc4c3)C(=O)NCCCC[C@H](NC(=O)N[C@@H](CCC(=O)O)C(=O)O)C(=O)O)CC2)CCN(CC(=O)[O-])CC1.[177Lu+3]` (some centres unmarked) [^177Lu-PSMA-617, reference compound], in data set [1] (1-hour point after administration), the Average tumor-to-kidney ratio stood at 0.17. The Tumor-to-kidney ratio in data set [1] (4-hour timepoint) was determined as 0.8. Also, in data set [1] (4 hours after i.v. injection), the “Kidney uptake (average)” value is 17.4 % ID/g and the “Tumor uptake (average)” value stood at 13.6 % ID/g. Moreover, the “Typical PSMA-ligand uptake of the xenograft model used” value in data set [1] (mouse xenografts, tumor model with intermediary level of uptake) is given as 10-15 % ID/g. Moreover, the “Survival at day 30 after treatment” value in data set [2] (groups of 8, saline group 0%) came out at 12.5%. In data set [2] (saline group 15 days), this molecule displayed a Median survival of 20 days. Further, in the data set on PC3 PIP model, the “Typical uptake in PC3 PIP model” value is recorded as 30-40 % ID/g.
With `O=C(O)CCC(NC(=O)NC(CCCCNC(=O)C(Cc1ccc2ccccc2c1)NC(=O)C1CCC(CNC(=O)CN2CCN(CC(=O)O)CCN(CC(=O)O)CCN(CC(=O)O)CC2)CC1)C(=O)O)C(=O)O.[212Pb+2]` (centres unmarked) [^212Pb-PSMA-617, reference compound], the Radiochemical purity in data set [3] (FBS, 1 h since start of incubation, in ^224Ra/^212Pb solution) is reported as 92.13%; in data set [3] (FBS, 4 h), 94.37%; in data set [3] (FBS, 24 h), 94.54%; in data set [3] (FBS, 48 h), 95.65%; in data set [3] (PBS, 1 h since start of incubation, in ^224Ra/^212Pb solution), 91.62%; in data set [3] (PBS, 4 h), 94.33%. Further, the Radiochemical purity stood at 93.26% in data set [3] (PBS, 24 h) and 93.17% in data set [3] (PBS, 48 h).
As for `NC(=O)CN1CCN(CC(N)=O)CCN(CC(N)=O)C(Cc2ccc(NC(=S)NC[C@H]3CC[C@H](C(=O)N[C@@H](Cc4ccc5ccccc5c4)C(=O)NCCCC[C@H](NC(=O)N[C@@H](CCC(=O)O)C(=O)O)C(=O)O)CC3)cc2)CN(CC(N)=O)CC1` (stereo partly drawn) [p-SCN-Bn-TCMC-PSMA ligand 1, (((1S)-1-carboxy-5-((2S)-3-(naphthalen-2-yl)-2-((1r,4S)-4-((3-(4-((1,4,7,10-tetrakis(2-amino-2-oxoethyl)-1,4,7,10-tetraazacyclododecan-2-yl)methyl)phenyl)thioureido)methyl)cyclohexane-1-carboxamido)propanamido)pentyl)carbamoyl)-L-glutamic acid; trifloroacetic acid (1:4)], the “Difference in cell-binding versus radiolabelled PSMA-617” value with C4-2 cells was “No significant difference”.
